# Results as given in patent publication US7432397B2, “Imaging compounds” (Hammersmith Imanet Ltd., priority 2002, dated 2008).
# Marks after values point to notes of the source that are not given here.
# Test: Biodistribution of radioactivity in rat tissues after intravenous injection
# Assay type: in vivo
# Conditions: i.v.; for Radioactivity in Plasma / Radioactivity in Whole blood: composite curve of 9 rats
# Protocol: Sixteen adult male Sprague-Dawley rats (body weight 250-320 g: mean±SD=288±25 g) were used in 5 separate experiments. Each rat was injected with ˜13 MBq Compound 1, at a specific activity of […], via a previously catheterised tail vein. The associated stable compound was 0.5±0.2 nmol/kg. Discrete samples of arterial blood were collected from 9 of the rats via a previously catheterised tail artery.
# Tissues were sampled post-mortem using an established protocol, as described in Hirani et al, Synapse 42:164-176 (2001). The radioactivity concentration data obtained at 12 times up to 90 min after radioligand injection were normalised for both amount injected and body weight, giving:—‘uptake units’=(cpm/g tissue)/(injected cpm/g body weight).
compound,measurement,setting,value
"CSc1cccc(N([11CH3])C(=N)Nc2cc(SC)ccc2Cl)c1 [Compound 1, (N-(2-chloro-5-(methylthio)phenyl)-N′-(3-methylthio)phenyl)-N′-[N-methyl-^11C]-methylguanidine]",Radioactivity in Entorhinal cortex,30 min,1.31 Uptake Units
same,Radioactivity in Fat,30 min,0.71 Uptake Units
same,Radioactivity in Heart (ventricle),30 min,0.99 Uptake Units
same,Radioactivity in Hippocampus,30 min,1.32 Uptake Units
same,Radioactivity in Hypothalamus,30 min,1.22 Uptake Units
same,Radioactivity in Inferior collicull,30 min,1.16 Uptake Units
same,Radioactivity in Kidney,30 min,2.85 Uptake Units
same,Radioactivity in Large intestine,30 min,1.11 Uptake Units
same,Radioactivity in Lge. intestine content,30 min,0.36 Uptake Units
same,Radioactivity in Liver,30 min,7.84 Uptake Units
same,Radioactivity in Lung,30 min,7.48 Uptake Units
same,Radioactivity in Medulla with Pons,30 min,1.26 Uptake Units
same,Radioactivity in Olfactory bulbs,30 min,1.10 Uptake Units
same,Radioactivity in Olfactory tubercles,30 min,1.24 Uptake Units
same,Radioactivity in Prefrontal cortex,30 min,1.51 Uptake Units
same,Radioactivity in Skeletal muscle,30 min,0.68 Uptake Units
same,Radioactivity in Skin,30 min,0.75 Uptake Units
same,Radioactivity in Sm. intestine content,30 min,7.14 Uptake Units
same,Radioactivity in Small intestine,30 min,2.30 Uptake Units
same,Radioactivity in Somatosensory cortex,30 min,1.37 Uptake Units
same,Radioactivity in Spleen,30 min,4.75 Uptake Units
same,Radioactivity in Stomach,30 min,1.07 Uptake Units
same,Radioactivity in Striata,30 min,1.32 Uptake Units
same,Radioactivity in Superior collicull,30 min,1.19 Uptake Units
same,Radioactivity in Testis,30 min,0.76 Uptake Units
same,Radioactivity in Thalamus,30 min,1.43 Uptake Units
same,Radioactivity in Urine,30 min,37.5 Uptake Units
same,Radioactivity in Visual cortex,30 min,1.55 Uptake Units
same,Radioactivity in Plasma,30 min,0.18 Uptake Units
same,Radioactivity in Whole blood,30 min,0.19 Uptake Units
same,Radioactivity in Cerebellum,40 min,0.62 Uptake Units
same,Radioactivity in Entorhinal cortex,40 min,0.85 Uptake Units
same,Radioactivity in Fat,40 min,0.45 Uptake Units
same,Radioactivity in Heart (ventricle),40 min,0.63 Uptake Units
same,Radioactivity in Hippocampus,40 min,0.86 Uptake Units
same,Radioactivity in Hypothalamus,40 min,0.76 Uptake Units
same,Radioactivity in Inferior collicull,40 min,0.64 Uptake Units
same,Radioactivity in Kidney,40 min,1.79 Uptake Units
same,Radioactivity in Large intestine,40 min,0.66 Uptake Units
same,Radioactivity in Lge. intestine content,40 min,0.23 Uptake Units
same,Radioactivity in Liver,40 min,5.76 Uptake Units
same,Radioactivity in Lung,40 min,3.99 Uptake Units
same,Radioactivity in Medulla with Pons,40 min,0.80 Uptake Units
same,Radioactivity in Olfactory bulbs,40 min,0.64 Uptake Units
same,Radioactivity in Olfactory tubercles,40 min,0.72 Uptake Units
same,Radioactivity in Prefrontal cortex,40 min,0.93 Uptake Units
same,Radioactivity in Skeletal muscle,40 min,0.61 Uptake Units
same,Radioactivity in Skin,40 min,0.39 Uptake Units
same,Radioactivity in Sm. intestine content,40 min,3.68 Uptake Units
same,Radioactivity in Small intestine,40 min,1.09 Uptake Units
same,Radioactivity in Somatosensory cortex,40 min,0.88 Uptake Units
same,Radioactivity in Spleen,40 min,2.83 Uptake Units
same,Radioactivity in Stomach,40 min,0.45 Uptake Units
same,Radioactivity in Striata,40 min,0.84 Uptake Units
same,Radioactivity in Superior collicull,40 min,0.65 Uptake Units
same,Radioactivity in Testis,40 min,0.74 Uptake Units
same,Radioactivity in Thalamus,40 min,0.92 Uptake Units
same,Radioactivity in Urine,40 min,27.5 Uptake Units
same,Radioactivity in Visual cortex,40 min,0.89 Uptake Units
same,Radioactivity in Plasma,40 min,0.16 Uptake Units
same,Radioactivity in Whole blood,40 min,0.16 Uptake Units
same,Radioactivity in Cerebellum,50 min,0.55 Uptake Units
same,Radioactivity in Entorhinal cortex,50 min,0.75 Uptake Units
same,Radioactivity in Fat,50 min,0.49 Uptake Units
same,Radioactivity in Heart (ventricle),50 min,0.50 Uptake Units
same,Radioactivity in Hippocampus,50 min,0.73 Uptake Units
same,Radioactivity in Hypothalamus,50 min,0.61 Uptake Units
same,Radioactivity in Inferior collicull,50 min,0.56 Uptake Units
same,Radioactivity in Kidney,50 min,1.68 Uptake Units
same,Radioactivity in Large intestine,50 min,0.76 Uptake Units
same,Radioactivity in Lge. intestine content,50 min,0.35 Uptake Units
same,Radioactivity in Liver,50 min,5.01 Uptake Units
same,Radioactivity in Lung,50 min,5.30 Uptake Units
same,Radioactivity in Medulla with Pons,50 min,0.70 Uptake Units
same,Radioactivity in Olfactory bulbs,50 min,0.58 Uptake Units
same,Radioactivity in Olfactory tubercles,50 min,0.65 Uptake Units
same,Radioactivity in Prefrontal cortex,50 min,0.80 Uptake Units
same,Radioactivity in Skeletal muscle,50 min,0.61 Uptake Units
same,Radioactivity in Skin,50 min,0.52 Uptake Units
same,Radioactivity in Sm. intestine content,50 min,4.03 Uptake Units
same,Radioactivity in Small intestine,50 min,1.19 Uptake Units
same,Radioactivity in Somatosensory cortex,50 min,0.71 Uptake Units
same,Radioactivity in Spleen,50 min,2.95 Uptake Units
same,Radioactivity in Stomach,50 min,0.32 Uptake Units
same,Radioactivity in Striata,50 min,0.69 Uptake Units
same,Radioactivity in Superior collicull,50 min,0.57 Uptake Units
same,Radioactivity in Testis,50 min,0.69 Uptake Units
same,Radioactivity in Thalamus,50 min,0.85 Uptake Units
same,Radioactivity in Urine,50 min,84.5 Uptake Units
same,Radioactivity in Visual cortex,50 min,0.72 Uptake Units
same,Radioactivity in Plasma,50 min,0.17 Uptake Units
same,Radioactivity in Whole blood,50 min,0.16 Uptake Units
same,Radioactivity in Cerebellum,60 min,0.54* Uptake Units
